# Measured values taken from US8962842B2, “2-pyridone antimicrobial compositions” (priority 2010, dated 2015).
# Like-named read-outs stand apart in the source and are kept apart here.
# Assays:
# [1] = system: Bacterial strains injected into thigh muscles; format: in vivo, mice
# human topoisomerase I = target: T1, human topoisomerase I (Homo sapiens, UniProt P11387); test: Inhibition of topoisomerases activity in vitro, Topogen protocol TG1015 (Table 7); format: biochemical; conditions: read-out: IC50 hTopo I Assay
# T1 construct: purchased Topogen Inc., Port Orange, USA TG1015
# T1 sequence (P11387 1-765): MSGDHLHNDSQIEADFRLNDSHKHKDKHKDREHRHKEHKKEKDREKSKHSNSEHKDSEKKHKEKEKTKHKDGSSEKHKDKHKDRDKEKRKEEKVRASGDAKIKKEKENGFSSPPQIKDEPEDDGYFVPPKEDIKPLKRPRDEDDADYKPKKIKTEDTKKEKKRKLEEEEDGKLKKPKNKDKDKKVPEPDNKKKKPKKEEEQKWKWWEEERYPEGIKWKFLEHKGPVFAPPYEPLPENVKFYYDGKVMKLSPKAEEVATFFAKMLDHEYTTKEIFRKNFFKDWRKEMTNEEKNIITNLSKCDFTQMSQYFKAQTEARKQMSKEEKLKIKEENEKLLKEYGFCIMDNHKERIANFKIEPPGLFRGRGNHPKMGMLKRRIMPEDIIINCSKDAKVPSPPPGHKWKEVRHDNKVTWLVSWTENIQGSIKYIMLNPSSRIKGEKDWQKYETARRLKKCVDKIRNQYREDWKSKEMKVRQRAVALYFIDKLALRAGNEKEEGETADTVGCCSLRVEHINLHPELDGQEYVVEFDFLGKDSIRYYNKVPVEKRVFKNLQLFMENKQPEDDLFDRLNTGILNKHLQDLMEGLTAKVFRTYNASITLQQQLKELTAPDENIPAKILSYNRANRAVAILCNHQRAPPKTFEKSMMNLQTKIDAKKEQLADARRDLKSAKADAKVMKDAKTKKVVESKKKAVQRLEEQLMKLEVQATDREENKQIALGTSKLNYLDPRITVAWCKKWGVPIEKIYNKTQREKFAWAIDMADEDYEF
# [2] = target: bacterial topoisomerase IV (Escherichia coli, UniProt P0AFI2+P20083); test: Inhibition of topoisomerases activity in vitro, Topogen protocol TG1007 (Table 7); format: biochemical
# bacterial topoisomerase IV, sequence (P20083 whole entry): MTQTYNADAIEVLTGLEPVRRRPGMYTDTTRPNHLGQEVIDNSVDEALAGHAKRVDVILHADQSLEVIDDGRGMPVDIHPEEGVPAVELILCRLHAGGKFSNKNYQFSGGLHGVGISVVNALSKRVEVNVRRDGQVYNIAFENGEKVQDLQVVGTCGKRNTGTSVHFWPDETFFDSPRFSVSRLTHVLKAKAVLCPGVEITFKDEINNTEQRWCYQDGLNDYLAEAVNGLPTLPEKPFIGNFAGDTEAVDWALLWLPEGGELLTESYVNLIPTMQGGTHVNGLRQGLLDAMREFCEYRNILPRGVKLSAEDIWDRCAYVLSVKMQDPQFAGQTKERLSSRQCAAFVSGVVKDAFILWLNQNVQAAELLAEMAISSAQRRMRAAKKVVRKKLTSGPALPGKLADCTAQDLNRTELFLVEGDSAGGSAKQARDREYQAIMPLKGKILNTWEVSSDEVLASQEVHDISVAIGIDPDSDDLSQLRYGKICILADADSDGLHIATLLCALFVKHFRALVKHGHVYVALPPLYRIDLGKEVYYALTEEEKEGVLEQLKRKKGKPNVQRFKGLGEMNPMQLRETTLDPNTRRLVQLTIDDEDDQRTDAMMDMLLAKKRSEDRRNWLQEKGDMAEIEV
# bacterial topoisomerase IV, sequence (P0AFI2 whole entry): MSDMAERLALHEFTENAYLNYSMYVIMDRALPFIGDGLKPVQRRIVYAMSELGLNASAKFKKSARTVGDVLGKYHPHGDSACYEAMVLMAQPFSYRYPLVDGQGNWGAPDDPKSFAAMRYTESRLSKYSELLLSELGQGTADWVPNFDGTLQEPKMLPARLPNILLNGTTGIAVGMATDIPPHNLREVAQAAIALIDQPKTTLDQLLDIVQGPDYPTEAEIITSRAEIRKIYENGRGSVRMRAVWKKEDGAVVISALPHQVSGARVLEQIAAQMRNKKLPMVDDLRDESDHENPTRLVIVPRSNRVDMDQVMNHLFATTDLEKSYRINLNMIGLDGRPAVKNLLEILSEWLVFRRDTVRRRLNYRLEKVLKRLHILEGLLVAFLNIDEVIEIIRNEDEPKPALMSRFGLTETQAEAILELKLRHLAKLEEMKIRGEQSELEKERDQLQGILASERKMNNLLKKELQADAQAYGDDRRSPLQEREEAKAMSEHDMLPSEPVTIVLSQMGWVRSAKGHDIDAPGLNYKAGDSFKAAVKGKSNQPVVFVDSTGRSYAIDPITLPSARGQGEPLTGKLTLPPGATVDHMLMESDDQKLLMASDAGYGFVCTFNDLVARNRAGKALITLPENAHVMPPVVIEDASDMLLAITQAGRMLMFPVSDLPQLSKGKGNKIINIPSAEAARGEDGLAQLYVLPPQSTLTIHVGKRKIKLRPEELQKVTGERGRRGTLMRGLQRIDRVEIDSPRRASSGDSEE
# [3] = system: Enterococcus faecalis (5 strains); test: MIC range, broader panel of Quotient Bioresearch strains (Table 3); conditions: for MIC50: read-out: MIC Range Median, Enterococcus faecalis (5 strains)
# bacterial gyrase = bacterial gyrase (Escherichia coli, UniProt P0AES4+P0AES6); test: Inhibition of topoisomerases activity in vitro, Topogen protocol TG1003 (Table 7); format: biochemical
# bacterial gyrase, sequence (P0AES4 whole entry, one chain of several): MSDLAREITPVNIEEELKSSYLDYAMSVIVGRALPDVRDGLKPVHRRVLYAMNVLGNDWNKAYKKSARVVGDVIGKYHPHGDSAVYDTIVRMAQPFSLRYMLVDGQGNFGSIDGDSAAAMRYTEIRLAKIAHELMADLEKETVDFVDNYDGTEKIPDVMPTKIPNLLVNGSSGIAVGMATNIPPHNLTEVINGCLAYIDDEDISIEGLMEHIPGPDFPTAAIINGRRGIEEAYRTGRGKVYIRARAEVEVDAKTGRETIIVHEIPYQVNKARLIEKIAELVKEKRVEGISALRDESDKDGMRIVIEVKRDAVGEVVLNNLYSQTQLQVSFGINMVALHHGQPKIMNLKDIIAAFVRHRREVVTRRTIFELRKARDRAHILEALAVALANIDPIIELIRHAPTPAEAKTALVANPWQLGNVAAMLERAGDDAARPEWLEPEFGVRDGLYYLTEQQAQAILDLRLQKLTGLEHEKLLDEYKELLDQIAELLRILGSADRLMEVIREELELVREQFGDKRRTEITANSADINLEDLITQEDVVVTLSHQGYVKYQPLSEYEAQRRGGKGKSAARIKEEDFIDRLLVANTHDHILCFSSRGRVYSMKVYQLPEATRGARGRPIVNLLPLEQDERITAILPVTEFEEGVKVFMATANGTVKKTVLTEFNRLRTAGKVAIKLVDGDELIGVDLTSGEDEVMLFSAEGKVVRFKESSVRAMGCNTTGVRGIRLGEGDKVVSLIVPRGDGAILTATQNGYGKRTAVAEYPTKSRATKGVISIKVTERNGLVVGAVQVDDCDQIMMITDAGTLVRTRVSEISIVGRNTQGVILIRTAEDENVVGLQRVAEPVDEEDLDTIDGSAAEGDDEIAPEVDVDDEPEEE
# [4] = system: Haemophilus influenza (5 strains); test: MIC range, broader panel of Quotient Bioresearch strains (Table 4); format: cell-based, Haemophilus influenzae; conditions: for MIC50: 16 h, Median of the strain panel
# [5] = system: Enterococcus faecium (3 strains); test: MIC range, broader panel of Quotient Bioresearch strains (Table 3); conditions: for MIC: read-out: MIC Range Low, Enterococcus faecium (3 strains); for MIC50: read-out: MIC Range Median, Enterococcus faecium (3 strains)
# [6] = system: Streptococcus pneumonia (5 strains); test: as above; conditions: Streptococcus pneumoniae; for MIC: read-out: MIC Range Low, Streptococcus pneumonia (5 strains); for MIC50: read-out: MIC Range Median, Streptococcus pneumonia (5 strains)
# [7] = system: Acinetobacter baumannii (12 strains); test: MIC range, broader panel of Quotient Bioresearch strains (Table 4); format: cell-based; conditions: for MIC50: read-out: MIC Range Median, Acinetobacter baumannii (12 strains)
# [8] = system: Burkholderia cepacia (5 strains); test: as above; format: cell-based; conditions: for MIC50: read-out: MIC Range Median, Burkholderia cepacia (5 strains)
# [9] = system: Streptococcus pyogenes (4 strains); test: MIC range, broader panel of Quotient Bioresearch strains (Table 3); conditions: for MIC50: read-out: MIC Range Median, Streptococcus pyogenes (4 strains)
# [10] = system: Staphylococcus aureus (16 strains); test: as above; conditions: for MIC50: read-out: MIC Range Median, Staphylococcus aureus (16 strains)
# [11] = system: Acinetobacter baumannii, quinolone-resistant strains (Quotient Bioresearch catalogue); test: MIC against pathogens resistant against quinolones (Table 5); format: cell-based; conditions: Acinetobacter baumannii, GN54
# [12] = system: Pseudomonas aeruginosa (12 strains); test: MIC range, broader panel of Quotient Bioresearch strains (Table 4); format: cell-based; conditions: for MIC50: read-out: MIC Range Median, Pseudomonas aeruginosa (12 strains)
# physchem = format: physicochemical; conditions: thermodynamic from solid
# Method: The solutions were incubated at room temperature for 24 hours before quantification by HPLC detection. Aqueous solubility was evaluated in simulated gastric fluid (SGF), simulated intestinal fluid (SIF) and phosphate buffer saline (PBS) pH 7.4. Aqueous solubility is expressed in Table 11 as mean solubility in μM.
# [13] = Metabolic stability in liver microsomes +/- S9 fraction (Table 8); format: in vitro ADME; conditions: 1 μM
# Method: Metabolic stability of a select number of examples was tested in liver microsomes+/−addition of S9 fraction as described by Kuhnz, W. and Gieschen, H. (1998), Drug Metab. Dispos., 1120-1127. Test concentration was 1 μM and HPLC/MS-MS was used for detection.
# [14] = system: Klebsiella pneumonia (4 strains); test: MIC range, broader panel of Quotient Bioresearch strains (Table 4); format: cell-based; conditions: Klebsiella pneumoniae; for MIC50: read-out: MIC Range Median, Klebsiella pneumonia (4 strains)
# [15] = system: Group C Streptococcus (4 strains); test: MIC range, broader panel of Quotient Bioresearch strains (Table 3); conditions: for MIC50: read-out: MIC Range Median, Group C Streptococcus (4 strains)
# [16] = system: Escherichia coli (6 strains); test: MIC range, broader panel of Quotient Bioresearch strains (Table 4); format: cell-based; conditions: for MIC50: read-out: MIC Range Median, Escherichia coli (6 strains)
# [17] = read-out: MIC Range High, Enterococcus faecalis (5 strains)
# [18] = read-out: MIC Range Low, Enterococcus faecalis (5 strains)
# [19] = High of the strain panel, read-out: MIC Range High, Haemophilus influenza (5 strains)
# [20] = Low of the strain panel, read-out: MIC Range Low, Haemophilus influenza (5 strains)
# [21] = read-out: MIC Range High, Acinetobacter baumannii (12 strains)
# [22] = read-out: MIC Range Low, Acinetobacter baumannii (12 strains)
# [23] = read-out: MIC Range High, Burkholderia cepacia (5 strains)
# [24] = read-out: MIC Range Low, Burkholderia cepacia (5 strains)
# [25] = read-out: MIC Range High, Streptococcus pyogenes (4 strains)
# [26] = read-out: MIC Range Low, Streptococcus pyogenes (4 strains)
# [27] = read-out: MIC Range Low, Staphylococcus aureus (16 strains)
# [28] = read-out: MIC Range High, Pseudomonas aeruginosa (12 strains)
# [29] = read-out: MIC Range Low, Pseudomonas aeruginosa (12 strains)
# [30] = read-out: MIC Range High, Klebsiella pneumonia (4 strains)
# [31] = read-out: MIC Range Low, Klebsiella pneumonia (4 strains)
# [32] = read-out: MIC Range High, Group C Streptococcus (4 strains)
# [33] = read-out: MIC Range Low, Group C Streptococcus (4 strains)
# [34] = read-out: MIC Range High, Escherichia coli (6 strains)
# [35] = read-out: MIC Range Low, Escherichia coli (6 strains)
compound,measurement,setting,value
"O=C(O)c1cn(C2CC2)c2cc(N3CCNCC3)c(F)cc2c1=O [Ciprofloxacin, reference compound]",Log reduction (LgR) from vehicle control (CFU/g),"[1]; MRSA ATCC 43300, mouse thigh, 20 mg/kg i.v. TDS",2.36
same,IC50,human topoisomerase I,> 150 µM
"Cc1c(-c2ccc(N)nc2)ccn2c(=O)c(C(=O)[O-])cc(C3CC3)c12.[K+] [Example 21 K salt, potassium 8-(6-amino-pyridin-3-yl)-1-cyclopropyl-9-methyl-4-oxo-4H-quinolizine-3-carboxylate]",Log reduction (LgR) from vehicle control (CFU/g),"[1]; E. coli ATCC 25922, mouse thigh, 30 mg/kg TDS p.o.",3.13
same,Log reduction (LgR) from vehicle control (CFU/g),"[1]; MRSA ATCC 43300, mouse thigh, 30 mg/kg TDS p.o.",4.93
same,IC50,[2],≤ 2.33 µM
same,MIC,[3]; [17],2 µg/mL
same,MIC,[3]; [18],0.03 µg/mL
same,MIC50,[3],0.12 µg/mL
same,IC50,bacterial gyrase,≤ 1.49 µM
same,MIC50,[4],≤ 0.015 µg/mL
same,MIC,[4]; [19],≤ 0.015 µg/mL
same,MIC,[4]; [20],≤ 0.015 µg/mL
same,MIC,[5],0.25 µg/mL
same,MIC50,[5],1 µg/mL
same,MIC,[6],0.06 µg/mL
same,MIC50,[6],0.06 µg/mL
same,MIC,[7]; [21],16 µg/mL
same,MIC,[7]; [22],0.03 µg/mL
same,MIC50,[7],4 µg/mL
same,MIC,[8]; [23],0.25 µg/mL
same,MIC,[8]; [24],0.12 µg/mL
same,MIC50,[8],0.25 µg/mL
same,MIC,[9]; [25],0.12 µg/mL
same,MIC,[9]; [26],0.06 µg/mL
same,MIC50,[9],0.06 µg/mL
same,MIC,[10]; [27],≤ 0.015 µg/mL
same,MIC50,[10],0.25 µg/mL
same,MIC,[11],4 µg/mL
same,MIC,[12]; [28],32 µg/mL
same,MIC,[12]; [29],0.5 µg/mL
same,MIC50,[12],8 µg/mL
same,solubility at 24 h,physchem; fassgf or other biorelevant,200 µM
same,solubility at 24 h,"physchem; pH 7.4, aqueous buffer",200 µM
same,solubility at 24 h,physchem; simulated gastric fluid,200 µM
same,Mean Parent Remaining,"[13]; Liver microsomes + S9, human",93%
same,Mean Parent Remaining,"[13]; Liver microsomes + S9, mouse",97%
same,Mean Parent Remaining,"[13]; Liver microsomes, human",85%
same,Mean Parent Remaining,"[13]; Liver microsomes, mouse",87%
same,MIC,[14]; [30],32 µg/mL
same,MIC,[14]; [31],0.06 µg/mL
same,MIC50,[14],9 µg/mL
same,MIC,[15]; [32],0.06 µg/mL
same,MIC,[15]; [33],0.03 µg/mL
same,MIC50,[15],0.03 µg/mL
same,MIC,[16]; [34],32 µg/mL
same,MIC,[16]; [35],≤ 0.015 µg/mL
same,MIC50,[16],16 µg/mL
"Cc1c(-c2cc(F)c(N)cc2F)ccn2c(=O)c(C(=O)[O-])cc(C3CC3)c12.[K+] [Example 28 K salt, potassium 8-(4-amino-2,5-difluoro-phenyl)-1-cyclopropyl-9-methyl-4-oxo-4H-quinolizine-3-carboxylate]",IC50,[2],≤ 8.45 µM
same,MIC,[3]; [17],0.5 µg/mL
same,MIC,[3]; [18],≤ 0.015 µg/mL
same,MIC50,[3],0.25 µg/mL
same,IC50,bacterial gyrase,0.68 µM
same,MIC50,[4],≤ 0.015 µg/mL
same,MIC,[4]; [19],≤ 0.015 µg/mL
same,MIC,[4]; [20],≤ 0.015 µg/mL
same,MIC,[5],0.12 µg/mL
same,MIC50,[5],0.25 µg/mL
same,MIC,[6],0.03 µg/mL
same,MIC50,[6],0.06 µg/mL
same,MIC,[7]; [21],16 µg/mL
same,MIC,[7]; [22],0.06 µg/mL
same,MIC50,[7],8 µg/mL
same,MIC,[8]; [23],0.5 µg/mL
same,MIC,[8]; [24],0.12 µg/mL
same,MIC50,[8],0.25 µg/mL
same,MIC,[9]; [25],0.06 µg/mL
same,MIC,[9]; [26],0.03 µg/mL
same,MIC50,[9],0.06 µg/mL
same,MIC,"[10]; read-out: MIC Range High, Staphylococcus aureus (16 strains)",0.12 µg/mL
same,MIC,[10]; [27],≤ 0.015 µg/mL
same,MIC50,[10],0.06 µg/mL
same,MIC,[11],2 µg/mL
same,MIC,[12]; [28],> 32 µg/mL
same,MIC,[12]; [29],1 µg/mL
same,MIC50,[12],6 µg/mL
same,solubility at 24 h,physchem; fassgf or other biorelevant,153 µM
same,solubility at 24 h,"physchem; pH 7.4, aqueous buffer",6 µM
same,solubility at 24 h,physchem; simulated gastric fluid,12 µM
same,Mean Parent Remaining,"[13]; Liver microsomes + S9, human",93%
same,Mean Parent Remaining,"[13]; Liver microsomes + S9, mouse",48%
same,Mean Parent Remaining,"[13]; Liver microsomes, human",97%
same,Mean Parent Remaining,"[13]; Liver microsomes, mouse",30%
same,MIC,[14]; [30],> 32 µg/mL
same,MIC,[14]; [31],0.12 µg/mL
same,MIC50,[14],18 µg/mL
same,MIC,[15]; [32],0.06 µg/mL
same,MIC,[15]; [33],0.03 µg/mL
same,MIC50,[15],0.045 µg/mL
same,MIC,[16]; [34],32 µg/mL
same,MIC,[16]; [35],0.03 µg/mL
same,MIC50,[16],16 µg/mL
same,IC50,human topoisomerase I,135 µM
